Measurements taken from PubChem BioAssay (NCI).
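1) Cells in 96-well plates. 2) Compound, 48 h, 5 concentrations. 3) Linear interpolation between surrounding doses. 4) Unreached endpoint = highest concentration. TGI: concentration producing complete growth inhibition.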

Tests used:
Test in all cases: inhibition of tumour cell growth, NCI panel, 48 h
786-0 renal = tested on: 786-0 renal
A498 renal = tested on: A498 renal
A549 NSCLC = tested on: A549 NSCLC
ACHN renal = tested on: ACHN renal
CAKI-1 renal = tested on: CAKI-1 renal
CCRF-CEM leukemia = tested on: CCRF-CEM leukemia
COLO 205 colon = tested on: COLO 205 colon
DLD-1 colon = tested on: DLD-1 colon
DMS 114 small cell lung = tested on: DMS 114 small cell lung
DMS 273 small cell lung = tested on: DMS 273 small cell lung
EKVX NSCLC = tested on: EKVX NSCLC
HL-60(TB) leukemia = tested on: HL-60(TB) leukemia
HOP-62 NSCLC = tested on: HOP-62 NSCLC
HOP-92 NSCLC = tested on: HOP-92 NSCLC
HT29 colon = tested on: HT29 colon
IGROV1 ovarian = tested on: IGROV1 ovarian
K-562 leukemia = tested on: K-562 leukemia
KM12 colon = tested on: KM12 colon
KM20L2 colon = tested on: KM20L2 colon
LOX IMVI melanoma = tested on: LOX IMVI melanoma
LXFL 529 NSCLC = tested on: LXFL 529 NSCLC
MALME-3M melanoma = tested on: MALME-3M melanoma
MOLT-4 leukemia = tested on: MOLT-4 leukemia
NCI-H226 lung = tested on: NCI-H226 lung
NCI-H23 lung = tested on: NCI-H23 lung
NCI-H460 lung = tested on: NCI-H460 lung
NCI-H522 lung = tested on: NCI-H522 lung
OVCAR-4 ovarian = tested on: OVCAR-4 ovarian
OVCAR-5 ovarian = tested on: OVCAR-5 ovarian
OVCAR-8 ovarian = tested on: OVCAR-8 ovarian
RXF 393 renal = tested on: RXF 393 renal
RXF-631 renal = tested on: RXF-631 renal
SF-268 CNS = tested on: SF-268 CNS
SF-295 CNS = tested on: SF-295 CNS
SF-539 CNS = tested on: SF-539 CNS
SK-MEL-2 melanoma = tested on: SK-MEL-2 melanoma
SK-MEL-28 melanoma = tested on: SK-MEL-28 melanoma
SK-MEL-5 melanoma = tested on: SK-MEL-5 melanoma
SK-OV-3 ovarian = tested on: SK-OV-3 ovarian
SN12C renal = tested on: SN12C renal
SNB-19 CNS = tested on: SNB-19 CNS
SNB-78 CNS = tested on: SNB-78 CNS
SR leukemia = tested on: SR leukemia
SW-620 colon = tested on: SW-620 colon
TK-10 renal = tested on: TK-10 renal
U251 CNS = tested on: U251 CNS
UACC-257 melanoma = tested on: UACC-257 melanoma
UACC-62 melanoma = tested on: UACC-62 melanoma
UO-31 renal = tested on: UO-31 renal
XF 498 CNS = tested on: XF 498 CNS
HCC-2998 colon = tested on: HCC-2998 colon
HCT-15 colon = tested on: HCT-15 colon
M14 melanoma = tested on: M14 melanoma
M19-MEL melanoma = tested on: M19-MEL melanoma
OVCAR-3 ovarian = tested on: OVCAR-3 ovarian
RPMI-8226 leukemia = tested on: RPMI-8226 leukemia
SNB-75 CNS = tested on: SNB-75 CNS
HCT-116 colon = tested on: HCT-116 colon
HOP-18 NSCLC = tested on: HOP-18 NSCLC

N#Cc1cccc(C2SCc3nc4ccccc4n32)c1 (stereo not given)
TGI (786-0 renal): > 100 µM
TGI (A498 renal): > 100 µM
TGI (A549 NSCLC): > 100 µM
TGI (ACHN renal): > 100 µM
TGI (CAKI-1 renal): > 100 µM
TGI (CCRF-CEM leukemia): > 100 µM
TGI (COLO 205 colon): > 100 µM
TGI (DLD-1 colon): > 100 µM
TGI (DMS 114 small cell lung): > 100 µM
TGI (DMS 273 small cell lung): > 100 µM
TGI (EKVX NSCLC): > 100 µM
TGI (HL-60(TB) leukemia): > 100 µM
TGI (HOP-62 NSCLC): > 100 µM
TGI (HOP-92 NSCLC): > 100 µM
TGI (HT29 colon): > 100 µM
TGI (IGROV1 ovarian): > 100 µM
TGI (K-562 leukemia): > 100 µM
TGI (KM12 colon): > 100 µM
TGI (KM20L2 colon): > 100 µM
TGI (LOX IMVI melanoma): > 100 µM
TGI (LXFL 529 NSCLC): > 100 µM
TGI (MALME-3M melanoma): > 100 µM
TGI (MOLT-4 leukemia): > 100 µM
TGI (NCI-H226 lung): 96.8 µM
TGI (NCI-H23 lung): > 100 µM
TGI (NCI-H460 lung): > 100 µM
TGI (NCI-H522 lung): > 100 µM
TGI (OVCAR-4 ovarian): > 100 µM
TGI (OVCAR-5 ovarian): > 100 µM
TGI (OVCAR-8 ovarian): > 100 µM
TGI (RXF 393 renal): > 100 µM
TGI (RXF-631 renal): > 100 µM
TGI (SF-268 CNS): > 100 µM
TGI (SF-295 CNS): > 100 µM
TGI (SF-539 CNS): > 100 µM
TGI (SK-MEL-2 melanoma): > 100 µM
TGI (SK-MEL-28 melanoma): > 100 µM
TGI (SK-MEL-5 melanoma): 65.2 µM
TGI (SK-OV-3 ovarian): > 100 µM
TGI (SN12C renal): > 100 µM
TGI (SNB-19 CNS): > 100 µM
TGI (SNB-78 CNS): > 100 µM
TGI (SR leukemia): > 100 µM
TGI (SW-620 colon): > 100 µM
TGI (TK-10 renal): > 100 µM
TGI (U251 CNS): > 100 µM
TGI (UACC-257 melanoma): > 100 µM
TGI (UACC-62 melanoma): > 100 µM
TGI (UO-31 renal): > 100 µM
TGI (XF 498 CNS): > 100 µM

BrC(/C=N/Nc1nnc(-c2ccccc2)c(-c2ccccc2)n1)C(Br)c1ccccc1 (stereo not given)
TGI (786-0 renal): > 100 µM
TGI (A498 renal): > 100 µM
TGI (A549 NSCLC): > 100 µM
TGI (ACHN renal): > 100 µM
TGI (CAKI-1 renal): > 100 µM
TGI (CCRF-CEM leukemia): 94.7 µM
TGI (COLO 205 colon): > 100 µM
TGI (DLD-1 colon): > 100 µM
TGI (DMS 114 small cell lung): > 100 µM
TGI (DMS 273 small cell lung): > 100 µM
TGI (EKVX NSCLC): > 100 µM
TGI (HCC-2998 colon): > 100 µM
TGI (HCT-15 colon): > 100 µM
TGI (HL-60(TB) leukemia): 79.5 µM
TGI (HOP-62 NSCLC): 92.2 µM
TGI (HOP-92 NSCLC): 64.5 µM
TGI (HT29 colon): > 100 µM
TGI (IGROV1 ovarian): > 100 µM
TGI (K-562 leukemia): > 100 µM
TGI (KM12 colon): > 100 µM
TGI (KM20L2 colon): > 100 µM
TGI (LOX IMVI melanoma): > 100 µM
TGI (M14 melanoma): 51.8 µM
TGI (M19-MEL melanoma): > 100 µM
TGI (MALME-3M melanoma): > 100 µM
TGI (MOLT-4 leukemia): > 100 µM
TGI (NCI-H226 lung): 70.4 µM
TGI (NCI-H23 lung): > 100 µM
TGI (NCI-H460 lung): > 100 µM
TGI (NCI-H522 lung): 54.1 µM
TGI (OVCAR-3 ovarian): > 100 µM
TGI (OVCAR-5 ovarian): > 100 µM
TGI (OVCAR-8 ovarian): > 100 µM
TGI (RPMI-8226 leukemia): 70.7 µM
TGI (RXF 393 renal): > 100 µM
TGI (RXF-631 renal): > 100 µM
TGI (SF-268 CNS): > 100 µM
TGI (SF-295 CNS): > 100 µM
TGI (SF-539 CNS): > 100 µM
TGI (SK-MEL-2 melanoma): 73.2 µM
TGI (SK-MEL-28 melanoma): > 100 µM
TGI (SK-MEL-5 melanoma): 57.9 µM
TGI (SK-OV-3 ovarian): > 100 µM
TGI (SN12C renal): > 100 µM
TGI (SNB-19 CNS): > 100 µM
TGI (SNB-75 CNS): 78.6 µM
TGI (SNB-78 CNS): 78.1 µM
TGI (SW-620 colon): > 100 µM
TGI (TK-10 renal): > 100 µM
TGI (U251 CNS): > 100 µM
TGI (UACC-257 melanoma): > 100 µM
TGI (UACC-62 melanoma): 53.5 µM
TGI (UO-31 renal): 60.5 µM
TGI (XF 498 CNS): 82.7 µM

CS(=O)(=O)Sc1ccc(Cl)cc1
TGI (786-0 renal): 19.2 µM
TGI (A498 renal): 7.48 µM
TGI (A549 NSCLC): 17.5 µM
TGI (CAKI-1 renal): 24.4 µM
TGI (CCRF-CEM leukemia): 8.89 µM
TGI (COLO 205 colon): 12.7 µM
TGI (DLD-1 colon): 27.2 µM
TGI (DMS 273 small cell lung): 17.4 µM
TGI (EKVX NSCLC): 18.3 µM
TGI (HCC-2998 colon): 24 µM
TGI (HCT-116 colon): 18.6 µM
TGI (HCT-15 colon): 22.2 µM
TGI (HL-60(TB) leukemia): 17.5 µM
TGI (HOP-18 NSCLC): 55.4 µM
TGI (HOP-62 NSCLC): 5.29 µM
TGI (HOP-92 NSCLC): 20 µM
TGI (HT29 colon): 22.6 µM
TGI (IGROV1 ovarian): 8 µM
TGI (K-562 leukemia): 42.6 µM
TGI (KM12 colon): 19.7 µM
TGI (KM20L2 colon): 24.3 µM
TGI (LOX IMVI melanoma): 11.5 µM
TGI (LXFL 529 NSCLC): 23.3 µM
TGI (M14 melanoma): 25.8 µM
TGI (M19-MEL melanoma): 21.2 µM
TGI (MALME-3M melanoma): 26.6 µM
TGI (MOLT-4 leukemia): 21.7 µM
TGI (NCI-H226 lung): 20.6 µM
TGI (NCI-H23 lung): 27.7 µM
TGI (NCI-H460 lung): 27.9 µM
TGI (NCI-H522 lung): 9.47 µM
TGI (OVCAR-3 ovarian): 19.3 µM
TGI (OVCAR-4 ovarian): 29.7 µM
TGI (OVCAR-5 ovarian): 31.5 µM
TGI (OVCAR-8 ovarian): 21.8 µM
TGI (RPMI-8226 leukemia): 41.9 µM
TGI (RXF 393 renal): 20.8 µM
TGI (RXF-631 renal): 20 µM
TGI (SF-268 CNS): 12.7 µM
TGI (SF-295 CNS): 9.21 µM
TGI (SF-539 CNS): 10.9 µM
TGI (SK-MEL-2 melanoma): 25.6 µM
TGI (SK-MEL-28 melanoma): 23.9 µM
TGI (SK-MEL-5 melanoma): 20.2 µM
TGI (SK-OV-3 ovarian): 43.9 µM
TGI (SN12C renal): 16 µM
TGI (SNB-19 CNS): 25.1 µM
TGI (SNB-75 CNS): 12.6 µM
TGI (SNB-78 CNS): 15.6 µM
TGI (SR leukemia): 15.7 µM
TGI (SW-620 colon): 25.3 µM
TGI (TK-10 renal): 31.2 µM
TGI (U251 CNS): 11.5 µM
TGI (UACC-257 melanoma): 20.6 µM
TGI (UO-31 renal): 13.3 µM
TGI (XF 498 CNS): 22.7 µM
